# Test results published in ChEMBL document CHEMBL1201862, “PubChem BioAssay data set” (2004).
# Calls of active or inactive are those of the source.
# What was measured:
# Insulin-degrading enzyme = target: T1, Insulin-degrading enzyme (Homo sapiens, UniProt P14735); test: Dose Response: Fluorescence polarization-based cell-based high throughput dose response assay for inhibitors of insulin-degrading enzyme (IDE). [Related pubchem assays: 434962 (Primary screen (IDE inhibitors in singlicate)), 449730 (Counterscreen (Cytotoxicity in triplicate)), 435028 (Confirmation (IDE inhibitors in triplicate)), 434984 (Summary …; format: functional
# T1 sequence (P14735 whole entry): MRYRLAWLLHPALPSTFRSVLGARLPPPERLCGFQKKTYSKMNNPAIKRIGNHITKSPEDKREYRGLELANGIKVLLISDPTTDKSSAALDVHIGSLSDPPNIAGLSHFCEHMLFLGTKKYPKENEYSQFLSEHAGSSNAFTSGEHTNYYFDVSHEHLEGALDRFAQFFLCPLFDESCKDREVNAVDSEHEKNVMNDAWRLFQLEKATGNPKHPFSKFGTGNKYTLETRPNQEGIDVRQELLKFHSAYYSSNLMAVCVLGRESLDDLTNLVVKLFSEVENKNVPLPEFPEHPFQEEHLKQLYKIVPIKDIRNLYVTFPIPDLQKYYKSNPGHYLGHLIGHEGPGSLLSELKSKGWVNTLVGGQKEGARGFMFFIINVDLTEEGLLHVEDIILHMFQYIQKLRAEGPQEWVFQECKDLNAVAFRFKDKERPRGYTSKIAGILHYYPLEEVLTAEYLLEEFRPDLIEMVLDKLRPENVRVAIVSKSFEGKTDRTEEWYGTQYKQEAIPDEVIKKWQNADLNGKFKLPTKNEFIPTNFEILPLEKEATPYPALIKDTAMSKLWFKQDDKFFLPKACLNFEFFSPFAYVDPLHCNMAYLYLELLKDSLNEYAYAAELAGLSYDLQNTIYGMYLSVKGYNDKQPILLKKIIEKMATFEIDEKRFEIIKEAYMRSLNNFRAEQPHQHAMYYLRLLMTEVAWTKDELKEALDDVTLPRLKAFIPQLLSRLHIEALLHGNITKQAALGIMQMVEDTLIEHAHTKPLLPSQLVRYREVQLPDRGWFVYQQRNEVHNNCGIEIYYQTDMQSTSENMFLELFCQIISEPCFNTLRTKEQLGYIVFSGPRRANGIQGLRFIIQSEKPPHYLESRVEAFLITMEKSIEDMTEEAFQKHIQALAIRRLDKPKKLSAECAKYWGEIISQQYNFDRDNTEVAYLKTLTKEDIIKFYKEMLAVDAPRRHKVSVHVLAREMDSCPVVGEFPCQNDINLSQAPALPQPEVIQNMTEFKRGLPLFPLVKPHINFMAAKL
# [1] = Counterscreen for IDE inhibitors: Luminescence-based cell-based high throughput dose response assay to identify compounds that are cytotoxic to HEK cells. [Related pubchem assays: 434962 (Primary screen (IDE inhibitors in singlicate)), 449730 (Counterscreen (Cytotoxicity in triplicate)), 435028 (Confirmation (IDE inhibitors in triplicate)) …; format: functional; settings: HEK293
# Wee1-like protein kinase = Wee1-like protein kinase (Homo sapiens, UniProt P30291); test: Dose Response Cell-based Assay for Inhibitors of Wee1 Degradation. [Related pubchem assays: 1410, 1321 ]; format: functional
# Wee1-like protein kinase, sequence (P30291 whole entry): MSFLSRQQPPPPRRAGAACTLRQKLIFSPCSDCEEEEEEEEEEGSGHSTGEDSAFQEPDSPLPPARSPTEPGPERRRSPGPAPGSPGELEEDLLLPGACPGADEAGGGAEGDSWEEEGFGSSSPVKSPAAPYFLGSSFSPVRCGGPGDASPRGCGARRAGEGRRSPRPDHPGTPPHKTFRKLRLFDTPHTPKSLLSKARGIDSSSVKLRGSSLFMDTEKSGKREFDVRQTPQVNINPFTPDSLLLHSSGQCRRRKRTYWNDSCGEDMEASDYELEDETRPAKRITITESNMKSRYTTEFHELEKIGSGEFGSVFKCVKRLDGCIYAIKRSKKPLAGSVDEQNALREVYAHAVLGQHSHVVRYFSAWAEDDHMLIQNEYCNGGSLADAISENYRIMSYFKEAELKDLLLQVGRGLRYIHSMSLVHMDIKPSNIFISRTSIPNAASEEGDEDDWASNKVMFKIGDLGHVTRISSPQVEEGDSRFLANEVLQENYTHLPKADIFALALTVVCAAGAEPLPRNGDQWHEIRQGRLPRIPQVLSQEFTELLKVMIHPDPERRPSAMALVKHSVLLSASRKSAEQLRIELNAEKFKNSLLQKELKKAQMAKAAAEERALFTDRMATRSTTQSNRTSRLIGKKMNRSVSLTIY
# [2] = target: G2/mitotic-specific cyclin-B1 (Homo sapiens, UniProt P14635); test: Counterscreen assay for inhibitors of Wee1 degradation: dose response cell-based assay to identify inhibitors of cyclin B degradation. [Related pubchem assays: 1410, 1321 ]; format: functional
# G2/mitotic-specific cyclin-B1, sequence (P14635 whole entry): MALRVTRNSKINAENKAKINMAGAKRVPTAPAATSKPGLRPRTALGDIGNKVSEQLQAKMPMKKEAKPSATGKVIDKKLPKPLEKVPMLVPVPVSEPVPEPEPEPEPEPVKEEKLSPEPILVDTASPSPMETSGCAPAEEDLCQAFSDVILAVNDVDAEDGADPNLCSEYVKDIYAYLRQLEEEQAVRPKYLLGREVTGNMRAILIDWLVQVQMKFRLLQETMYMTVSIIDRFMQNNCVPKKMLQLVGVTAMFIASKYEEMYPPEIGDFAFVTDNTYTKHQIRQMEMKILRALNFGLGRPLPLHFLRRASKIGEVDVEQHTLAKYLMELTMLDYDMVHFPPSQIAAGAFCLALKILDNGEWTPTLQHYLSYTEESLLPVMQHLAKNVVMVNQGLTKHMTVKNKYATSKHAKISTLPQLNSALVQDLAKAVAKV
# [3] = target: T2, Replicative DNA helicase DnaB (Mycobacterium tuberculosis, UniProt P9WMR3); test: DnaB intein splicing inhibitors, dose response, biochemical, cell-free fluorescence (AID 449749); format: functional
# T2 sequence (P9WMR3 whole entry): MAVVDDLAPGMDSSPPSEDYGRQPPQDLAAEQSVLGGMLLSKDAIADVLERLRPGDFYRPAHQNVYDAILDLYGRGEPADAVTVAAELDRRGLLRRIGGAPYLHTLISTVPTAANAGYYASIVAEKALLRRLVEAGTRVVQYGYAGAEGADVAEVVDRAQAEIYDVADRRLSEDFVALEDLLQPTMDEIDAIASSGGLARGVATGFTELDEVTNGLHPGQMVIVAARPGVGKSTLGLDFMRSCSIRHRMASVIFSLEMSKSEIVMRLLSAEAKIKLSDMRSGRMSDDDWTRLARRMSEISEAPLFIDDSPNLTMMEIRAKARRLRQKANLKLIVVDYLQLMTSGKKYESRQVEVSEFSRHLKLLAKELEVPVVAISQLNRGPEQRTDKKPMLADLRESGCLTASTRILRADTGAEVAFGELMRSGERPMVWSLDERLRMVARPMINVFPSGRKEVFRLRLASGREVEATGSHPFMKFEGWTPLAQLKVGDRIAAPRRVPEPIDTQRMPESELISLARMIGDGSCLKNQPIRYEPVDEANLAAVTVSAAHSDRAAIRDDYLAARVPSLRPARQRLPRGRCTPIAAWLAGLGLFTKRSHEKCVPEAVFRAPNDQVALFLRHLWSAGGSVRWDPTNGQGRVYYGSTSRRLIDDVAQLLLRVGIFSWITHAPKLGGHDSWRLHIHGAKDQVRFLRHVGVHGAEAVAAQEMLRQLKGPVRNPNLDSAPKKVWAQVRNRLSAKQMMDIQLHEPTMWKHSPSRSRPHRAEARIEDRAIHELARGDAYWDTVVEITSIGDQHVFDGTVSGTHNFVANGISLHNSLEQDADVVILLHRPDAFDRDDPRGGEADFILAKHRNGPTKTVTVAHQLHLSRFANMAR
# [4] = target: Luciferin 4-monooxygenase (Photinus pyralis, UniProt P08659); test: Counter Screen for Luciferase-based Assay Positives. [Related pubchem assays: 620, 618, 411 ]
# Luciferin 4-monooxygenase, sequence (P08659 whole entry): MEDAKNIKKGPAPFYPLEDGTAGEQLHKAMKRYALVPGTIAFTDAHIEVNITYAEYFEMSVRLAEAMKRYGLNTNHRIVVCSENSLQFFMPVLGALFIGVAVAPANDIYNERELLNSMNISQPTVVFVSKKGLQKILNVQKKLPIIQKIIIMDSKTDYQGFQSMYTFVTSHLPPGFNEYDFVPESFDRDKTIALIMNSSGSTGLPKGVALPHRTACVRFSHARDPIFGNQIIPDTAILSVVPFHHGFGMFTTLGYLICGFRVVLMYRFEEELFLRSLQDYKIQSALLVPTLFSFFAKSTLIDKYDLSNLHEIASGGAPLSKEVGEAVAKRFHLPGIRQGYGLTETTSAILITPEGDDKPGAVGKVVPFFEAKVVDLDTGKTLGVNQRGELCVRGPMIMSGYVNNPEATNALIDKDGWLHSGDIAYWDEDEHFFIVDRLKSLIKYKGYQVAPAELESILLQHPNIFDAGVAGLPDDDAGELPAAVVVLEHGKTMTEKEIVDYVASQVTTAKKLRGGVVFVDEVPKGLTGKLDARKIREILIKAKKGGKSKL
# HT-1080 = test: HT1080 cell viability loss – fluorescence readout (AID 620); format: functional, cell-based; settings: Homo sapiens
# [5] = reduced cellular PGC1a acetyl-lysine signal – cell-based, cherry-picked samples, dose response (AID 720514); format: functional;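 also: potency may reflect raised or lowered acetylation signal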
# Protein RecA = target: T3, Protein RecA (Mycobacterium tuberculosis, UniProt P9WHJ3); test: Fluorescence Cell-Free Homogeneous Dose Retest to Identify Inhibitors of RecA-Intein Splicing Activity. [Related pubchem assays (depositor defined):AID2097, AID2223, AID489010, AID492950]; format: functional
# T3 sequence (P9WHJ3 whole entry): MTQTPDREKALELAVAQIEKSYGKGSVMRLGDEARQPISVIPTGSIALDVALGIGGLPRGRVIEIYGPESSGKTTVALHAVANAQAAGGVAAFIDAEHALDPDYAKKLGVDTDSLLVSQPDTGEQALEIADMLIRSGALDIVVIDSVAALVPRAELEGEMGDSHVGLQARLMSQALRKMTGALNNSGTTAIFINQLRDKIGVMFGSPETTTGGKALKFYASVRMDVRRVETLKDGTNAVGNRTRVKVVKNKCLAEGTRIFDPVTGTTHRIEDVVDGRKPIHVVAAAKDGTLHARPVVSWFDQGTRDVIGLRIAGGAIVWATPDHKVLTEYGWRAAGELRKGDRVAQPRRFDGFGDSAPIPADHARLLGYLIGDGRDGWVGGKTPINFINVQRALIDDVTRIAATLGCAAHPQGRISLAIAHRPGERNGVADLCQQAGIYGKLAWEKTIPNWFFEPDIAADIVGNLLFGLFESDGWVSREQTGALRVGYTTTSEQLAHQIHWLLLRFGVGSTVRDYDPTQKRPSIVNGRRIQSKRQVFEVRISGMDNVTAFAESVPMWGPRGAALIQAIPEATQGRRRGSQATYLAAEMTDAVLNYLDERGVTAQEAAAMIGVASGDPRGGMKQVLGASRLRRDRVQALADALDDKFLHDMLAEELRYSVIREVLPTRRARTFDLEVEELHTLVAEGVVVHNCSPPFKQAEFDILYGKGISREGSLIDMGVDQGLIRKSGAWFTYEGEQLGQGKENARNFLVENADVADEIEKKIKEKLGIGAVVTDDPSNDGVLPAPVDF
# [6] = Luminescence Cell-Based Dose Retest to Confirm Inhibitors of Cancer Stem Cells. [Related pubchem assays (depositor defined):AID2717, AID2721]; format: functional; settings: Homo sapiens
# [7] = target: Mothers against decapentaplegic homolog 3 (Homo sapiens, UniProt P84022); test: blockers of Smad3 complex formation in lysate – cell lysate, secondary confirmation, chemiluminescent ELISA, HEK293 lysate, dose response (AID 1058); format: functional
# Mothers against decapentaplegic homolog 3, sequence (P84022 whole entry): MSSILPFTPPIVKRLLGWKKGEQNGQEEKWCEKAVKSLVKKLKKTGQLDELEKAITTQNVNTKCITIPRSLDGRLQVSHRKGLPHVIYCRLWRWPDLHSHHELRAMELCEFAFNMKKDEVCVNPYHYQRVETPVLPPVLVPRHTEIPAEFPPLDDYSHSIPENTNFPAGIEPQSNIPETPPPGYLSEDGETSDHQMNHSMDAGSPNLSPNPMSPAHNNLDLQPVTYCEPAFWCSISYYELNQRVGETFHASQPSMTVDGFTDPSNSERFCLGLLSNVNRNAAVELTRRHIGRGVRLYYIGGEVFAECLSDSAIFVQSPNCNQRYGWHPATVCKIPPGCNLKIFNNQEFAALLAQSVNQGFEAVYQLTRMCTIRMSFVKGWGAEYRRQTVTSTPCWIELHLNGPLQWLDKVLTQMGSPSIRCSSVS
smiles,measurement,setting,value
O=C(Nc1cccc(C(F)(F)F)c1)c1csc(-c2ccncc2)n1,IC50,Insulin-degrading enzyme,5.34 µM (active)
same,IC50,[1],21.2 µM (not active)
O=C(/C=C/c1ccccc1)Nc1ccc(Cl)cn1,EC50,Wee1-like protein kinase,> 49.7 µM (not active)
same,EC50,[2],> 49.7 µM (not active)
CCCCOc1ccc(C(=O)C(CN2CCOCC2)c2ccccc2)cc1 (stereo unspecified),AC50,[3],12.6 µM (active)
same,EC50,[4],3.7 µM (active)
same,EC50,HT-1080,30 µM (active)
same,AC50,[5],4.4 µM (active)
same,EC50,Protein RecA,26.7 µM (inconclusive)
same,AC50,[6],5.12 µM (active)
Oc1cc2c(cc1C(c1ccc3c(c1)OCO3)N1CCN(C(c3ccc4c(c3)OCO4)c3cc4c(cc3O)OCO4)CC1)OCO2 (stereo unspecified),IC50,[7],14.1 µM (not active)
